Tests used:
KRas G12C = biological target: T1, KRas G12C (Homo sapiens, UniProt P01116, G12C); experiment: KRas binding assay, TR-FRET displacement of Cy5 labelled tracer; conditions: 60-minute incubation at room temperature, 1% DMSO, pH 7.5
T1 construct: Biotinylated KRas (corresponding to amino acids 1-169, produced at Accelegan Inc.); biotin (biotinylated); purchased Accelegan Inc
How it was run: (§1)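 Each mutant protein, a biotinylated 1-169 construct, was combined with terbium streptavidin, tracer and compound. After sixty minutes at room temperature TR-FRET was recorded. POC data were fitted with a four-parameter IC50 model.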

KRas G12S = biological target: T2, KRas G12S (Homo sapiens, UniProt P01116, G12S); experiment: as above; conditions: 60-minute incubation at room temperature, 1% DMSO, pH 7.5
T2 construct: Biotinylated KRas (corresponding to amino acids 1-169, produced at Accelegan Inc.); biotin (biotinylated); purchased Accelegan Inc
T2 sequence (P01116 1-169 isoform P01116-2 G12S): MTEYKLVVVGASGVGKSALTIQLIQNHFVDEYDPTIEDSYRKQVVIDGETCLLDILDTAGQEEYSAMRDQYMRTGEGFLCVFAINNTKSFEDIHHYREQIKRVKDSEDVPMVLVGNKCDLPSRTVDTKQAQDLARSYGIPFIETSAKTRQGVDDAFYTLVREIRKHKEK
How it was run: as §1

KRas WT = biological target: T3, KRas WT (Homo sapiens, UniProt P01116); experiment: as above; conditions: 60-minute incubation at room temperature, 1% DMSO, pH 7.5
T3 construct: Biotinylated KRas (corresponding to amino acids 1-169, produced at Accelegan Inc.); biotin (biotinylated); purchased Accelegan Inc
T3 sequence (P01116 1-169 isoform P01116-2): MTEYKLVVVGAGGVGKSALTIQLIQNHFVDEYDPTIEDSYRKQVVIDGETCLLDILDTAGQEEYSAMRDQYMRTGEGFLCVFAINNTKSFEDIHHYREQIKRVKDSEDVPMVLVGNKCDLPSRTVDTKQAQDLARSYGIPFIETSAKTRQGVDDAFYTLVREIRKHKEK
How it was run: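 KRas aa 1-169, biotinylated; Tb-streptavidin donor; 1% DMSO final. Buffer: HEPES 50 mM (pH 7.5), MgCl2 5 mM, DTT 1 mM, Tween-20 0.005%. 60 min, RT. IC50 from 4-parameter fit of POC.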

[1] = biological target: T4, KRas-mediated phosphorylation of ERK in MKN1 cells (Homo sapiens, UniProt P01116); experiment: Inhibition of KRas-mediated phosphorylation of ERK (HTRF), MKN1 cells; format: cell-based; conditions: MKN1 cells (KRas WT); HTRF pERK; 3 h incubation
T4 construct: pERK HTRF read-out
T4 sequence (P01116 1-188 isoform P01116-2): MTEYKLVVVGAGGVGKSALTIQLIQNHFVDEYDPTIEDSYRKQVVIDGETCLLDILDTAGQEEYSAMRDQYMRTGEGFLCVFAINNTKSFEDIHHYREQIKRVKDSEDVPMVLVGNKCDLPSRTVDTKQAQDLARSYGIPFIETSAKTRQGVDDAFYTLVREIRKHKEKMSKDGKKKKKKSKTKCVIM
Description: Inhibition of KRas Phosphorylation of ERK (HTRF) by Exemplary Compounds of Formula (Ia) or (Ib)
Cisbio HTRF Advanced pERK Assay Catalog #64AERPEH • Cells: MKN1, PSN1 • Procedure: • 1. Day 1: Seed 6,000 cells/well −25 μl/well in 384-well white solid bottom plate; RPM1_10% FBS. Incubate overnight at 37 °C/5% CO2. • 2.

[2] = biological target: T5, KRas-mediated phosphorylation of ERK in A549 cells (Homo sapiens, UniProt P01116, G12S); experiment: Inhibition of KRas-mediated phosphorylation of ERK (HTRF), A549 cells; format: cell-based; conditions: HTRF pERK, 3 h incubation
T5 construct: pERK HTRF read-out
T5 sequence (P01116 1-188 isoform P01116-2 G12S): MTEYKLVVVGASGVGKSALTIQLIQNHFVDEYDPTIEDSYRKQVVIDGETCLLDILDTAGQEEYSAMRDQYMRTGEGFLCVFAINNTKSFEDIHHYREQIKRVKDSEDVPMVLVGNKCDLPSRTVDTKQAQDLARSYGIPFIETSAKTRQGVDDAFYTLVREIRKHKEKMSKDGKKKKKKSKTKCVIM

[3] = biological target: T6, KRas-mediated phosphorylation of ERK in H358 cells (Homo sapiens, UniProt P01116, G12C); experiment: Inhibition of KRas-mediated phosphorylation of ERK (HTRF), H358 cells; format: cell-based; conditions: HTRF pERK, 3 h incubation
T6 construct: pERK HTRF read-out
T6 sequence (P01116 1-188 isoform P01116-2 G12C): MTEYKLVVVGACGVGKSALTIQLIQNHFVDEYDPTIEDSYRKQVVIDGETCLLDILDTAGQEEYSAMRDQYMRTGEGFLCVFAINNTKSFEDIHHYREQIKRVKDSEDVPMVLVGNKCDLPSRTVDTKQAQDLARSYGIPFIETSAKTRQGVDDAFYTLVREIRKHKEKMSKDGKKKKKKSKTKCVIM

T1 sequence (P01116 1-169 isoform P01116-2 G12C): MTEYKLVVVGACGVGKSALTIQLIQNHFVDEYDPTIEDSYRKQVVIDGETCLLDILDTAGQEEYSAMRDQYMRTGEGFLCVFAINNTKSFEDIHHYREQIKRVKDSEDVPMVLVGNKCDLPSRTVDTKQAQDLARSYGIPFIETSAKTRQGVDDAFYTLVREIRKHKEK

| IC50 (KRas G12C) [nM] | IC50 (KRas G12S) [nM] | IC50 (KRas WT) [nM] | IC50 [1] [nM] | IC50 [2] [nM] | IC50 [3] [nM] | SMILES |
| --- | --- | --- | --- | --- | --- | --- |
| 5 | 4 | 12 | 60 | 3 | 3 | CC(=O)N(C)C(=O)C(C)CCN(C)c1nc(OC[C@@]23CCCN2C[C@H](F)C3)nc2c(F)c(-c3ccc(F)c4sc(N)c(C#N)c34)c(Cl)cc12 (stereo partly drawn) [Example 304, N-acetyl-4-((7-(2-amino-3-cyano-7-fluorobenzo[b]thiophen-4-yl)-6-chloro-8-fluoro-2-(((2R,7aS)-2-fluorotetrahydro-1H-pyrrolizin-7a(5H)-yl)methoxy)quinazolin-4-yl)(methyl)amino)-N,2-dimethylbutanamide] |
| 12 | 17 | 21 | 78 | 21 | 19 | COCCN(C(C)=O)C(=O)C1CCN(c2nc(OC[C@@]34CCCN3C[C@H](F)C4)nc3c(F)c(-c4ccc(F)c5sc(N)c(C#N)c45)c(Cl)cc23)CC1 [Example 305, N-acetyl-1-(7-(2-amino-3-cyano-7-fluorobenzo[b]thiophen-4-yl)-6-chloro-8-fluoro-2-(((2R,7aS)-2-fluorotetrahydro-1H-pyrrolizin-7a(5H)-yl)methoxy)quinazolin-4-yl)-N-(2-methoxyethyl)piperidine-4-carboxamide] |
| 5 | 7 | 10 | 134 | 92 | 45 | CN(C(=O)CCCN(C)c1nc(OC[C@@]23CCCN2C[C@H](F)C3)nc2c(F)c(-c3ccc(F)c4sc(N)c(C#N)c34)c(Cl)cc12)C(=O)c1cnn(C)c1 [Example 306, N-(4-((7-(2-amino-3-cyano-7-fluorobenzo[b]thiophen-4-yl)-6-chloro-8-fluoro-2-(((2R,7aS)-2-fluorotetrahydro-1H-pyrrolizin-7a(5H)-yl)methoxy)quinazolin-4-yl)(methyl)amino)butanoyl)-N, 1-dimethyl-1H-pyrazole-4-carboxamide] |
| 3 | 2 | 8 | 70 | 5 | 15 | COCC(=O)N(C)C(=O)CCCN(C)c1nc(OC[C@@]23CCCN2C[C@H](F)C3)nc2c(F)c(-c3ccc(F)c4sc(N)c(C#N)c34)c(Cl)cc12 [Example 307, 4-((7-(2-amino-3-cyano-7-fluorobenzo[b]thiophen-4-yl)-6-chloro-8-fluoro-2-(((2R,7aS)-2-fluorotetrahydro-1H-pyrrolizin-7a(5H)-yl)methoxy)quinazolin-4-yl)(methyl)amino)-N-(2-methoxyacetyl)-N-methylbutanamide] |
| 2 | 3 | 12 | 801 | 17 | 908 | Cc1ccn(C(=O)CCNc2cc(O[C@@H](C)[C@@H]3CCCN3C)nc(-c3noc([C@@]4(C)CCCc5sc(N)c(C#N)c54)n3)n2)n1 [Example 318, (S)-2-amino-4-methyl-4-(3-(4-((3-(3-methyl-1H-pyrazol-1-yl)-3-oxopropyl)amino)-6-((S)-1-((S)-1-methylpyrrolidin-2-yl)ethoxy)pyrimidin-2-yl)-1,2,4-oxadiazol-5-yl)-4,5,6,7-tetrahydrobenzo[b]thiophene-3-carbonitrile] |
| > 100000 | > 100000 | > 100000 | > 10000 | > 10000 | > 10000 | CC(=O)N(C)C(=O)CCCN(C)c1cc(O[C@@H](C)[C@@H]2CCCN2C)nc(-c2cc([C@]3(C)CCCc4sc(N)c(C#N)c43)sn2)n1 [Example 319, N-acetyl-4-((2-(5-((R)-2-amino-3-cyano-4-methyl-4,5,6,7-tetrahydrobenzo[b]thiophen-4-yl)isothiazol-3-yl)-6-((S)-1-((S)-1-methylpyrrolidin-2-yl)ethoxy)pyrimidin-4-yl)(methyl)amino)-N-methylbutanamide] |
| 131 | 179 | 264 | > 10000 | 621 | > 10000 | Cc1ccn(C(=O)CCN(C)c2cc(O[C@@H](C)[C@@H]3CCCN3C)nc(-c3noc([C@]4(C)CCCc5sc(N)c(C#N)c54)n3)n2)n1 [Example 320, (R)-2-amino-4-methyl-4-(3-(4-(methyl (3-(3-methyl-1H-pyrazol-1-yl)-3-oxopropyl)amino)-6-((S)-1-((S)-1-methylpyrrolidin-2-yl)ethoxy)pyrimidin-2-yl)-1,2,4-oxadiazol-5-yl)-4,5,6,7-tetrahydrobenzo[b]thiophene-3-carbonitrile] |
| 14 | 21 | 28 | 861 | 192 | 1060 | Cc1ccn(C(=O)CCNc2cc(-c3noc4c3CCC[C@@]43CCCc4sc(N)c(C#N)c43)nc(N3CCNC[C@@H]3C)n2)n1 [Example 321, (S)-2-amino-3′-(6-((3-(3-methyl-1H-pyrazol-1-yl)-3-oxopropyl)amino)-2-((S)-2-methylpiperazin-1-yl)pyrimidin-4-yl)-5′,6,6′,7-tetrahydro-4′H,5H-spiro[benzo[b]thiophene-4,7′-benzo[d]isoxazole]-3-carbonitrile] |
| 10 | 20 | 525 | 7310 | 96 | 9590 | Cc1ccn(C(=O)CCCN(C)c2cc(O[C@@H](C)[C@@H]3CCCN3C)nc(-c3noc([C@@]4(C)CCCc5sc(N)c(C#N)c54)n3)n2)n1 [Example 322, (S)-2-amino-4-methyl-4-(3-(4-(methyl (4-(3-methyl-1H-pyrazol-1-yl)-4-oxobutyl)amino)-6-((S)-1-((S)-1-methylpyrrolidin-2-yl)ethoxy)pyrimidin-2-yl)-1,2,4-oxadiazol-5-yl)-4,5,6,7-tetrahydrobenzo[b]thiophene-3-carbonitrile] |
| 17 | 26 | 346 | 1860 | 140 | 3330 | Cc1ccn(C(=O)CCCN(C)c2cc(O[C@@H](C)[C@@H]3CCCN3C)nc(-c3cc([C@]4(C)CCCc5sc(N)c(C#N)c54)sn3)n2)n1 [Example 323, (R)-2-amino-4-methyl-4-(3-(4-(methyl (4-(3-methyl-1H-pyrazol-1-yl)-4-oxobutyl)amino)-6-((S)-1-((S)-1-methylpyrrolidin-2-yl)ethoxy)pyrimidin-2-yl)isothiazol-5-yl)-4,5,6,7-tetrahydrobenzo[b]thiophene-3-carbonitrile] |
| < 2 | < 2 | 19 | 651 | 9 | 262 | Cc1ccn(C(=O)CCCNc2cc(O[C@@H](C)[C@@H]3CCCN3C)nc(-c3noc([C@]4(C)CCCc5sc(N)c(C#N)c54)n3)n2)n1 [Example 324, (R)-2-amino-4-methyl-4-(3-(4-((4-(3-methyl-1H-pyrazol-1-yl)-4-oxobutyl)amino)-6-((S)-1-((S)-1-methylpyrrolidin-2-yl)ethoxy)pyrimidin-2-yl)-1,2,4-oxadiazol-5-yl)-4,5,6,7-tetrahydrobenzo[b]thiophene-3-carbonitrile] |

From patent publication US20260356856A1, “KRAS G12S AND G12C INHIBITORS” (MIRATI THERAPEUTICS, INC., priority 2023, published 2026)
